Non-standard residues stand in square brackets, D forms with d. Residues, ends and D or L forms follow the SMILES beside them. *: point of attachment. Leu(ol) = CC(C)C[C@H](N)CO; Cbz = O=C(OCc1ccccc1)*
| Compound | melting point [°C] |
| --- | --- |
| N#CCCCc1ncccc1NS(=O)(=O)c1ccccc1 | 80 to 81 |
| CCCCCCCCOC(=O)C(=C1SCCCS1)c1cccc(C(F)(F)F)c1 | 49 |
| COC(=O)CCNC(=O)c1cc(Cl)c([N+](=O)[O-])cc1[N+](=O)[O-] | 139 to 141 |
| Cc1nc2c(N)nc3ccccc3c2n1CCC1(O)CCOCC1 | > 253 |
| CCOC(CNC(=S)Nc1nccs1)OCC | 118 to 119 |
| CC(=O)c1ccc(-c2ccccc2)c(F)c1 | 97 to 97.5 |
| CNC(=O)c1[nH]c(C)c2c1CN=C(c1ccccc1F)c1cc(Cl)ccc1-2 | 252 to 255 |
| CCc1ccccc1Cn1cc(-c2cn(C3CC(O)C(CO)O3)c(=O)[nH]c2=O)nn1 (stereo unspecified) | 169 to 172 |
| CC(=O)SC/C(=C/c1ccccc1)C(=O)O | 57 |
| O=C(CCl)Nc1csc(Br)n1 | 146 to 148 |
| CCOCN(C(=O)CCl)c1c(OC)cccc1OC | 95 to 97 |
| O=C(Nc1ccc(/C=C/CO)c(F)c1)OCc1ccccc1 | 105 to 106 |
| COCc1ccc(C(=O)OC)cn1 | 33 |
| COc1ccc(N)cc1CNC(C)=O | 123 to 125 |
| COc1ccc(-c2ccncc2)cc1 | 94 to 96 |
| O=C(NC1CCCCCC1)c1cccc(C(=O)NC2CCCCCC2)c1 | 285 to 286 |
| CCOC1=CC2=CCC3C4CCC(=O)C4(C)CCC3C2(C)CC1 (stereo unspecified) | 146 to 149 |
| CC(=O)NN=C(C)c1ccncc1 | 178 |
| CCOCN1C(C)=C(C(=O)O)[C@H](c2cccc([N+](=O)[O-])c2)C(C(=O)OCOC(=O)C(C)(C)C)=C1C | 85 to 86 |
| O=S(=O)(O)c1cc(O)ccc1O | 164 to 167 |
| CCOC(=O)C1=C(COCc2nnn[nH]2)NC(C)=C(C(=O)OC)C1c1cccc(Cl)c1Cl (stereo unspecified) | 112 to 114 |

| Compound | melting point [°C] |
| --- | --- |
| COc1c(C#N)c(OC)c(OC)c(OC)c1OC | 64 |
| CCCCn1c(N)nc2ccc(C3CCc4cncn43)cc21 (stereo unspecified) | 196 |
| CCN1C[C@@H](O)[C@H](Oc2ccc(C(C)=O)cc2OC)C1 (relative stereo) | 121 to 123 |
| CC12CC3OC3CC1CCC1C2CCC2(C)C(O)C(N3CCCCC3)CC12 (stereo unspecified) | 153 to 165 |
| C[C@H](N[C@H]1CC[C@@H](c2ccccc2)CC1)[C@@H](O)c1ccc(O)cc1 | 199 to 212 |
| CC(C)CC12CCC3C4CCC(=O)C=C4CCC3C1CCC2OC(=O)CCc1ccccc1 (stereo unspecified) | 101 to 106 |
| CN(C)CC1(C2(O)CCCCC2)Cc2cc3c(cc21)N(C)CC3 (stereo unspecified) | 121 to 124 |
| Cc1cc(C(=O)O)n(-c2ccc(F)cc2)n1 | 188 |
| CC1(O)c2ccccc2-c2[nH]nc(-c3ccccc3)c21 (stereo unspecified) | 154 to 155 |
| Cc1ccc(C)c(S(=O)(=O)c2ccc(F)c3ccccc23)c1 | 142 to 143 |
| Cc1cc(-c2cccc(C3=Nc4cc(N5CCCC5)c(C#N)cc4NC(=O)C3)c2)on1 | 267 |
| Clc1nc(Cl)c2[nH]nnc2n1 | > 260 |
| O=C(NN1CCOCC1)C(CS)Cc1c(Cl)cccc1Cl (stereo unspecified) | 142 |
| CC(=O)C(C(C)=O)=C1NC(=O)N(Cc2ccccc2)C1=O | 211 to 212 |
| CCCCNC(=O)Nc1ccc(C)cc1 | 118 to 119 |
| NC(=O)c1ccc(OCC(O)CCCl)cc1 (stereo unspecified) | 150 to 153 |
| CC(C)(C)OC(=O)COC[C@@H]1C[C@@H](SC(c2ccccc2)(c2ccccc2)c2ccccc2)CN1S(C)(=O)=O | 98 |
| CCc1[nH]nc2c1C(=O)c1c(NC(N)=O)cccc1-2 | > 250 |
| CCOCCc1ccc(OCCNc2ncnc(COC)c2Cl)c(C)c1 | 39 to 41 |
| CN1CCN(c2cccc(-c3ccc(C#N)c(=O)[nH]3)c2)CC1 | 264 to 267 |
| CCOC(=O)C1=Cc2cc(SC)ccc2OC1C(F)(F)F (stereo unspecified) | 87.8 to 89.6 |

| Compound | melting point [°C] |
| --- | --- |
| CCCCCCCCOc1ccc(-c2ncc(O)cn2)cc1 | 131 to 132 |
| CN1C(=O)Cn2cnnc2-c2cc(Cl)ccc21 | 272 to 274 |
| CCc1nc2c(N)nc3ccccc3c2n1CCC1(O)CC1 | 199 to 200 |
| Nc1c(Cl)cc(C(O)CNCCCCCCOCCc2ccccn2)cc1C(F)(F)F (stereo unspecified) | 51.5 to 53 |
| CCCCCCCCCCC#CC#CCCCCCCCCC(=O)O | 57 to 58 |
| O=C(c1ccccc1F)c1cc2c(c(Cl)c1Cl)OC(CO)C2 (stereo unspecified) | 148 to 150 |
| O=C1CCCc2nc(C#Cc3cccnc3)ccc21 | 120 to 122 |
| CNc1nc(C(=O)c2ccc([N+](=O)[O-])c(OC)c2)n2ccccc12 | 208 |
| c1ccc(OCC2CO2)c(Cc2cccc3[nH]ccc23)c1 (stereo unspecified) | 78 |
| CCCc1c(OCCCCCCC2CC(=O)c3ccc(OCC(=O)OC)c(CCC)c3O2)ccc(C(C)=O)c1O (stereo unspecified) | 121 to 124 |
| CC(C)C[C@@H](CO)NC(=O)[C@H](Cc1c[nH]cn1)NC(=O)[C@H](Cc1ccccc1)NC(=O)OCc1ccccc1 (Cbz-Phe-His-[Leu(ol)]) | 181 to 183 |
| CC(C)c1c(C=O)c(-c2ccccc2)c2c3ccccc3cnn12 | 163 to 164 |
| Cc1ccc(-c2ccccc2NC(=O)NN)cc1 | 148 to 151 |
| CC(C)Oc1cc(NC(=O)C2=C(C(=O)N(C)C)CCCC2)ccc1Br | 137 to 138 |
| COC(=O)c1ccccc1NC(=O)NCc1ccccc1 | 140 to 141 |
| CN(C)C=C(C(=O)c1ccccc1)C(=O)c1ccccc1 | 120 |
| O=C(O)Cc1csc(NC(=O)OCC(Cl)(Cl)Cl)n1 | 164 |
| Nn1cccc1C(=O)c1cccs1 | 81 to 82 |
| O=C1NCc2c1c1c3cc(O)ccc3[nH]c1c1[nH]c3ccc(O)cc3c21 | > 330 |
| COc1ccc(-n2cnnc2SC)cc1 | 172 |

The next lines start with the values.

| melting point [°C] | Compound |
| --- | --- |
| 148 to 153 | OCc1cn(-c2ccc(Cl)c(C(F)(F)F)c2)cn1 |
| 175 to 177 | CCCc1c(OCCCCCOc2ccc(C(=O)c3ccc(C(=O)O)cc3)cc2CCC(=O)O)ccc2c1OCCC2=O |
| 194 to 198 | COc1ccc(-c2ccc(C(=O)Nc3cc4ncc(CN5CCCC5)cc4cc3C)cc2)cc1 |
| 250 to 252 | COc1ccccc1C(Cc1ccccc1)(Cn1cncn1)C(=O)O (stereo unspecified) |
| 141 to 143 | O=C(O)COc1ccc2c(c1)-c1nc(SC(c3ccccc3)c3ccccc3)sc1CC2 |
| 186 | C=CCN1CCN(c2cc3c(cc2F)c(=O)c(C(=O)O)cn3CC=C)CC1 |
| 94 to 96 | O=C1N(N2CCCCC2)c2ccccc2C1(Cc1ccccc1)Cc1ccccc1 |
| 153 to 155 | Cn1nc(-c2c(F)cccc2Cl)nc1-c1ccc(COc2ncc(Cl)cc2Cl)c(Cl)c1 |
| 120 to 124 | COC(=O)C1(CCCN2CCN(c3ccc(O)cc3)CC2)Sc2cc(OC)ccc2CCC1O (stereo unspecified) |
| 175 to 176 | CC(C)(C)OC(=O)COc1ccc(-c2c(Cl)c(CN3C(=O)CCC3=O)nc3sc4c(c23)CCS(=O)C4)cc1 (stereo unspecified) |
| 126 to 128 | CC(C)n1cc(-c2cnc3c(c2)nnn3Cc2ccc3ncccc3c2)cn1 |
| 198 to 206 | Cc1ccc2c(c1)N(CC(=O)c1cccs1)C(=O)C(NC(=O)Nc1cccc(C(=O)O)c1)CN2C(=O)C(C)(C)C (stereo unspecified) |
| > 200 | CN(C)CCCOc1ccc(C[C@H](NC(=O)[C@@H]2CCCN2S(=O)(=O)c2cccs2)C(=O)O)cc1 |
| 184 to 186 | Cc1nc(-c2ccc3c(=O)n(CC(C)C)c(CNC(=O)OC(C)(C)C)c(-c4ccccc4)c3c2)sc1C(=O)O |
| 192 to 194 | Nc1nc(-c2cc(Cl)ccc2Cl)nc(N2CCCCC2)n1 |
| 136 to 137 | CN(NC(=O)c1ccccc1CO)C(=S)Nc1cccc(F)c1 |
| 211 to 213 | O=C(Nc1ccc(Oc2ccc(N(CC(=O)N3CCN(Cc4ccc5c(c4)OCO5)CC3)C(=O)C(F)(F)F)cc2)nc1)c1ccc(Cl)c(Cl)c1 |
| 70 to 74 | COc1ccccc1N1CCN(Cc2c(C3CC3)nn(-c3ccccc3)c2N)CC1 |
| 99 to 101 | O=C(O)Cc1cc(F)ccc1OCCc1ccccc1 |
| 163 to 165 | CCCNC(=O)C1Cc2c([nH]c3ccccc23)C(c2ccc3c(c2)OCO3)N1C(C)=O (stereo unspecified) |

| melting point [°C] | Compound |
| --- | --- |
| 185 to 186 | NS(=O)(=O)c1ccc(-n2nc(C(F)F)cc2-c2ccc(Cl)cc2)cc1 |
| 177 to 179 | O=C(O)COc1cc(F)c(-c2ccccc2)cc1C(=S)NCc1cccc([N+](=O)[O-])c1 |
| 233 to 235 | COC(=O)c1cccc(NC(=O)c2ccc(OC)c([N+](=O)[O-])c2)c1 |
| 119 | CCC(=O)c1ccc(-c2cc(NC(=O)OC(C)(C)C)ccc2C)c(C)c1 |
| 252 to 254 | O=C(O)C1=Cc2cc(-c3ccc(OC(F)(F)F)cc3)ccc2OCC1 |
| 346 to 348 | CN(C)Cc1cccc(-c2cc3c(=O)n(NS(C)(=O)=O)c(=O)[nH]c3cc2C(F)(F)F)c1 |
| 170 to 171 | CC(C)Oc1cc(/C=C/C(=O)O)n(Cc2ccc(C(F)(F)F)cc2Cl)n1 |
| 118 to 120 | COc1ccc(S(=O)(=O)C(CCCc2ccccc2)(CCCc2ccccc2)C(=O)O)cc1 |
| 174 to 176 | CCC(C)(C)c1cc(-c2cccc(C=C3SC(N4CCOCC4)=NC3=O)c2)ccc1O |
| 114 to 117 | CCC(=C(c1ccc(O)cc1)c1ccc(OCCN(C)C)cc1)c1ccccc1 |
| 205 to 207 | N#Cc1cnc2cc3c(cc2c1Cl)ncn3CCN1CCOCC1 |
| 89 to 90 | COc1cccc(C(C)NC(=O)CCc2cnoc2-c2ccc(Cl)cc2)c1 (stereo unspecified) |
| 200 to 203 | CC(Oc1ncn(-c2ccc(OC(F)(F)F)cc2)n1)C(=O)O (stereo unspecified) |
| 101 to 102 | ClCc1cccc2c(-c3ccc(Cl)cc3)nccc12 |
| 119 to 121 | CN1CCN(CCc2ccc(Nc3ncc4c(n3)-c3ccccc3C(c3ccc(Cl)c(Cl)c3)C4)cc2)CC1 (stereo unspecified) |
| 132 to 135 | CCOC(=O)Cc1cccc2c(-c3ccc(N(C)C)cc3)nccc12 |
| 91 to 92 | CC(=O)OC(CN(Cc1ccccc1)Cc1ccccc1)c1ccc2c(c1)CCN2C(C)=O (stereo unspecified) |
| 216 to 220 | CCOC(=O)c1cnc(N(C)Cc2cc3nc(-c4cccc(OCCO)c4)nc(N4CCOCC4)c3s2)nc1 |
| 189 to 191 | CCCc1ccnc(C(=O)c2[nH]c3cc(Cl)ccc3c2CC(=O)O)c1 |

From a melting point compilation (Tetko et al.; mined from patent text by program, amines drawn as free bases though some values may be those of a salt)
